Measurements taken from patent US5565493A, “Collagen metabolism ameliorant and its use in the stimulation of hair growth” (Kanebo, Ltd., priority 1990, dated 1996).

Assays:
[1] = test system: human fibrosarcoma cell strain HT-P11; assay: Action of MSE for promoting procollagenase production (FITC-collagen collagenase activity of culture supernatant); type: cell-based
Experimental: A test was carried out using anchorage independent cell strain which is derived from a human fibrosarcoma cell strain HT 1080 (ATCC CCL121) and growable in a serum-free, protein-free medium (referred to as "human fibrosarcoma cell strain HT-P11".). Namely, the above-described human fibrosarcoma cell strain HT 1080 (ATCC CCL1211) was cultured in the presence of serum in a flask having a base area of 25 cm^2 and the medium was replaced by the HF-AV medium. Replacing a fifth to half part of the cultured suspension with a fresh HF-AV medium every 3-4 days, the culture was continued in a serum-free, protein-free medium. The thus grown cells were used. The cells were pre-cultured as below to prepare a cell suspension which was then tested.
The human fibrosarcoma cell strain HT-P11 was suspended with a density of 1×10^5 cells/ml in the HF-AV medium. Flasks (each having a base area of 75 cm^2) were charged, respectively, with 20 ml of the resulting suspension, and stationarily cultured at 37° C. for 3 days in a 95% air/5% carbon dioxide gas atmosphere. […]
Using a type-I collagen labeled with fluorescein isothiocyanate (hereinafter abbreviated as "FITC") (a 1 mg/ml conc. FITC/collagen acetic acid solution, manufactured by Cosmo Bio Co.) as a substrate solution, the activity (unit/ml) of the above collagenase solution was determined in accordance with the following procedure.

[2] = test system: male rabbits of Japanese native strain; assay: Skin irritative test (Draize method); type: in vivo
Experimental: Using male rabbits of Japanese native strain (a weight of about 3 kg), a skin irritative test was conducted in accordance with the Draize method [Appraisal of the Safety of Chemicals in Foods, Drugs and Cosmetics, p.46 (1959) edited and published by the Editorial Committee, Association of Food & Drug Official of U.S.A.].
An abraded region (injured skin) was produced on the hair-trimmed back of the rabbits. An adhesive plaster for a patch test (RIBBON-AID™ of 1.2 cm×1.6 cm, manufactured by Liba-Tape & Co., Ltd.) was impregnated with 0.1 ml of a 1 wt. % MSE aqueous solution that had been prepared by dissolving MSE in refined water and attached onto the injured skin and a normal skin, respectively. After 24 hours, the plaster was detached to observe erythematic and edematous conditions of the skins. After 48 hours from detaching of the plaster, the same observation was made.
Based on the above scores and the following equation, primary irritant scores were calculated.
Primary irritant score=(A24 +A48)/2+(B24
Then, irritation degrees of the test compounds were appraised based upon the primary irritative scores and the criteria shown in Table 6.

[3] = test system: Rats of hepatic fibrosis induced by CCl4; assay: Effect of MSE in medical treatment for hepatic fibrosis (Hyp in liver and blood, blood plasma biochemistry); type: in vivo, male rats of Wistar origin; details: mean ± standard error (n = 5)
Experimental: (§1) A 2 ml/kg dose of an equivalent mixture of carbon tetra-chloride (CCl4) and olive oil was administered hypodermically to the back of male rats of Wistar origin (5 weeks old; a weight of 122-134 g; and 5 rats/group) twice a week (on Monday and Thursday) for 10 weeks to produce rats of hepatic fibrosis. A 3 ml/kg dose of a 66.6 mg/ml conc. MSE aqueous solution was administered perorally once a day for continual 7 weeks (except Sundays) from the 4th week after the commencement of the CCl4 administration.
Then, the whole blood was gathered from the abdominal aorta and collected in a test tube treated with heparin. This was centrifuged to obtain blood plasma. The blood plasma was stored at -80° C. until the under-mentioned biochemical examinations.
(§2) Further, after gathering the whole-blood, the liver was extracted, weighed and divided into halves under an ice-chilled condition. Then, one of the halves was frozen at -80° C. for quantification of hydroxyproline (hereinafter abbreviated as "Hyp") in the liver and the other half was fixed with a 10% formaline solution for a histological examination.
(§3) On the other hand, there were provided, as an untreated group, a group of the rats of hepatic fibrosis administered with 3 ml/kg of refined water in lieu of the MSE aqueous solution according to the same schedule as the above and, as a group of normal rats, a group bred for 10 weeks without administering CCl4 and the MSE aqueous solution. Blood-gathering and liver-extraction were conducted on these groups in the same manner as the above.
(§4) Then, using the above each liver and blood plasma, the Hyp in the liver and blood were quantified. Additionally, the Hyp is an index of the quantity of the collagen [Methods of Biochemical Analysis, Vol. 15, p. 25 (1967)]. Further, biochemical examinations of the blood plasma [refer to the under-described items (b)-(h)] and histological examinations of the liver [refer to the under-described item (i)], as indices of liver injury, were conducted.
(a) Quantities of the Hyp in liver and blood.
(a-1) Quantity of the Hyp in a liver: about 100 mg of a liver were weighed precisely and added with 250 μl of physiological salt solution. Then, the liver was disintegrated by agitating vigorously (at 28,000 rpm for 30 seconds) with a homogenizer (PHYSCOTRON™, manufactured by Niti-On Medical and Physical Instruments Mfg. Co.).
The obtained suspension was centrifuged (at 5,000 rpm for 10 min.) and separated into a supernatant sample and a precipitation sample. By adding a 6N hydrochloric acid, each sample was increased to 2 ml and hydrolyzed at 110° C. for 24 hours. The hydrolyzate solution was centrifugally condensed to remove hydrochloric acid therefrom and the condensate was dissolved in a 0.01N hydrochloric acid.
The obtained solution was quantified according to a determination method of amino acids by a high-performance liquid chromatography with a post-column derivatization [Proceedings of the National Academy of Sciences of the U.S.A., Vol. 72, No. 2, p. 619 (1975)] to find quantities of the Hyp in the supernatant sample and precipitation sample, respectively. Then, a quantity of the Hyp per unit weight of the liver (μmol/g of liver) was calculated from the total quantity of the Hyps in the supernatant sample and precipitation sample and the weight of the liver.
(a-2) Quantity of the Hyp in blood: 100 μl of blood plasma was admixed with 100 μl of a 5 w/v % sulfo-salicylic acid aqueous solution under an ice-chilled condition and centrifugally separated (10,000 rpm; for 3 min.) to obtain a supernatant liquor. The Hyp in the supernatant liquor was quantified according to the above-mentioned determination method of amino acids (μmol/1).
(b) Quantity of glutamic-pyruvic transaminase (hereinafter abbreviated as "GPT"):
(b-3) Measurement of test sample.
(c) Quantity of glutamic-oxaloacetic transaminase (hereinafter abbreviated as "GOT"): […]

male mice of ICR strain = assay: Acute toxicity; type: in vivo; details: single peroral dose 5 g/kg of body weight, 5 male mice, observed 7 days
Experimental: An acute toxicity was examined as follows:
To 5 male mice of ICR strain (5 weeks old; a weight of 24~28 g), a 25 g/ml conc. MSE aqueous solution that had been prepared by dissolving MSE in refined water was perorally administered once in a dose of […] of the body weight (5 g/kg of the body weight, as MSE).

[4] = test system: Rats of hepatic fibrosis induced by CCl4; assay: Histological examination of liver; type: in vivo, male rats of Wistar origin; details: as compared with the untreated group; hematoxylin-eosin
Experimental: as §1, §2, §3, §4
(i) Histological examination of liver: a liver was sliced according to a usual method and, after staining with hematoxylin-eosin, it was microscopically observed.

CN[C@@H](CO)C(=O)O [MSE, N-methyl-L-serine]
Production of procollagenase ([1]; mean ± standard error (N = 3), control 3.7 ± 0.2, 600 μM MSE solution, 0.4 ml added to 2 ml culture, 13 days, P < 0.01): 7.9 ± 0.7 unit/ml of culture solution
Production promotion rate ([1]; versus no additives (control)): 114%
primary irritative score ([2]; 0.1 ml of 1 wt. % MSE aqueous solution, injured and normal skin, after 24 and 48 hours): zero
appraisal of irritation ([2]; based on primary irritative score, 1 wt. % MSE aqueous solution): light irritation
f: Quantity of alkaline phosphatase ([3]; Bessey-Lowry's method, untreated 1270 ± 90, p < 0.01): 956 ± 114 unit/l
e: Quantity of gross bilirubin ([3]; Malloy-Evelyn's method, untreated 0.36 ± 0.02, p < 0.1): 0.26 ± 0.05 m9/dl
g: Thymol turbidimetric test value (TTT) ([3]; blood plasma, untreated 0.26 ± 0.06): 0.18 ± 0.13 U of Kunkel
h: Zinc sulphate turbidimetric test value (ZTT) ([3]; blood plasma, untreated 0.78 ± 0.11, p < 0.01): 0.26 ± 0.07 U of Kunkel
d: Quantity of γ-glutamyl transpeptidase (γ-GTP) ([3]; blood plasma, untreated 17.6 ± 0.7, p < 0.1): 14.4 ± 1.7 U/liter
a-2: Quantity of the Hyp in blood ([3]; blood plasma, untreated 30.6 ± 1.1, p < 0.1): 39.1 ± 3.6 μmol/1
b: Quantity of glutamic-pyruvic transaminase (GPT) ([3]; blood plasma, untreated 948 ± 92, p < 0.01): 537 ± 182 Reitman-Frankel unit
c: Quantity of glutamic-oxaloacetic transaminase (GOT) ([3]; blood plasma, untreated 2170 ± 184, p < 0.01): 875 ± 324 Reitman-Frankel unit
a-1: Quantity of the Hyp in liver ([3]; peroral 3 ml/kg of 66.6 mg/ml once a day, 7 weeks, untreated 10.0 ± 1.5, p < 0.1): 6.79 ± 0.82 μmol/g of liver
deaths by administration (male mice of ICR strain): no deaths
cholangioepithelial cytogenesis [4]: mitigated
cholangiolar hyperplasia [4]: mitigated
diffuse hepatocyte vacuolization [4]: mitigated
